How the values were obtained:
Assay in all cases: relative viability (nuclei count vs DMSO), 5 days (fraction); higher = more cells survive
QS11 + Phenformin = compound: C1CC2=C(C1)C=C(C=C2)OC3=NC(=C4C(=N3)N(C=N4)CC5=CC=C(C=C5)C6=CC=CC=C6)N[C@@H](CC7=CC=CC=C7)CO [QS11] + N=C(N)NC(=N)NCCc1ccccc1 [Phenformin] (partner 250 µM)
In short: (§1)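 The day after seeding in 1536-well plates, lung cancer cell lines were treated by pin tool with a single drug, or with a fixed anchor-drug dose together with five library-drug doses (not always all listed) in √10 steps. After 5 days, a combined fix-and-stain solution (final 0.05% Triton X-100, 1% formaldehyde, 1 ug/ml Hoechst) was added. Nuclei counted on 4× images gave relative viability as treated counts over vehicle counts, reported as the median of duplicate plates.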

QS11 + Decitabine = compound: C1CC2=C(C1)C=C(C=C2)OC3=NC(=C4C(=N3)N(C=N4)CC5=CC=C(C=C5)C6=CC=CC=C6)N[C@@H](CC7=CC=CC=C7)CO [QS11] + Nc1ncn([C@H]2C[C@H](O)[C@@H](CO)O2)c(=O)n1 [Decitabine] (partner 2 µM)
In short: as §1

AZ628 + Alpelisib = compound: CC1=C(C=C(C=C1)NC(=O)C2=CC(=CC=C2)C(C)(C)C#N)NC3=CC4=C(C=C3)N=CN(C4=O)C [AZ628] + Cc1nc(NC(=O)N2CCC[C@H]2C(N)=O)sc1-c1ccnc(C(C)(C)C(F)(F)F)c1 [Alpelisib] (partner 2 µM)
In short: as §1

Darinaparsin + Lapatinib = compound: C[As](C)SC[C@H](NC(=O)CC[C@H](N)C(=O)O)C(=O)NCC(=O)O [Darinaparsin] + CS(=O)(=O)CCNCc1ccc(-c2ccc3ncnc(Nc4ccc(OCc5cccc(F)c5)c(Cl)c4)c3c2)o1 [Lapatinib] (partner 2 µM)
In short: as §1

| Cell Line | relative viability (QS11 + Phenformin; first compound 0.08 µM) | relative viability (QS11 + Phenformin; first compound 0.253 µM) | relative viability (QS11 + Phenformin; first compound 2.53 µM) | relative viability (QS11 + Phenformin; first compound 8 µM) | relative viability (QS11 + Decitabine; first compound 0.08 µM) | relative viability (QS11 + Decitabine; first compound 0.253 µM) | relative viability (QS11 + Decitabine; first compound 2.53 µM) | relative viability (QS11 + Decitabine; first compound 8 µM) | relative viability (AZ628 + Alpelisib; first compound 0.08 µM) | relative viability (AZ628 + Alpelisib; first compound 0.253 µM) | relative viability (AZ628 + Alpelisib; first compound 0.8 µM) | relative viability (AZ628 + Alpelisib; first compound 2.53 µM) | relative viability (AZ628 + Alpelisib; first compound 8 µM) | relative viability (Darinaparsin + Lapatinib; first compound 0.08 µM) | relative viability (Darinaparsin + Lapatinib; first compound 0.8 µM) | relative viability (Darinaparsin + Lapatinib; first compound 2.53 µM) | relative viability (Darinaparsin + Lapatinib; first compound 8 µM) | relative viability (QS11 + Phenformin; first compound 0.8 µM) | relative viability (QS11 + Decitabine; first compound 0.8 µM) |
| --- | --- | --- | --- | --- | --- | --- | --- | --- | --- | --- | --- | --- | --- | --- | --- | --- | --- | --- | --- |
| NCI-H3122 | 0.376 | 0.399 | 0.384 | 0.322 | 0.484 | 0.554 | 0.487 | 0.556 | 0.631 | 0.337 | 0.342 | 0.268 | 0.233 | 1.16 | 0.986 | 1.03 | 1.14 |  |  |
| NCI-H2170 | 0.436 | 0.404 | 0.44 | 0.392 | 0.487 | 0.466 | 0.43 | 0.5 | 0.931 | 0.751 | 0.809 | 0.852 | 0.98 | 0.283 | 0.257 | 0.286 | 0.285 | 0.399 | 0.398 |
| HCC-78 | 0.788 | 0.722 | 0.871 | 0.798 | 0.687 | 0.772 | 0.797 | 0.719 | 0.5 | 0.336 | 0.346 | 0.368 | 0.504 | 0.76 | 0.58 | 0.704 | 0.885 | 0.725 | 0.662 |
| HARA | 0.368 | 0.448 | 0.479 | 0.63 | 0.508 |  | 0.605 | 0.389 | 0.68 | 0.763 | 0.907 | 0.726 | 0.391 | 0.77 | 0.692 | 0.649 | 0.755 |  | 0.36 |
| NCI-H2347 | 0.374 | 0.395 | 0.364 | 0.637 | 0.587 | 0.563 | 0.694 | 0.659 | 0.679 | 0.934 | 0.779 | 0.822 | 0.471 | 1.23 | 0.883 | 0.919 | 1.1 | 0.362 | 0.582 |
| NCI-H1437 | 0.302 | 0.225 | 0.334 | 0.283 | 0.557 | 0.649 | 0.585 | 0.531 | 0.958 | 0.976 | 1.02 | 1.01 | 0.988 | 1.15 | 0.769 | 0.719 | 0.974 | 0.285 | 0.432 |
| LXF-289 | 0.468 | 0.509 | 0.495 | 0.541 | 0.347 | 0.361 | 0.443 | 0.396 | 1.01 | 1.01 | 0.963 | 0.961 | 0.626 | 0.968 | 0.874 | 0.765 | 1.08 | 0.486 | 0.346 |
| NCI-H1792 | 0.219 |  | 0.268 | 0.178 |  | 0.536 | 0.498 | 0.58 | 0.788 | 0.679 | 0.522 | 0.607 | 0.425 | 1.26 | 0.83 | 0.696 | 0.927 | 0.338 | 0.518 |
| LU99A | 0.768 | 0.975 | 0.827 | 0.869 | 0.873 | 0.967 | 0.922 | 0.931 | 0.456 | 0.478 | 0.628 | 0.554 | 0.216 | 1.03 | 0.942 | 0.923 | 1.22 | 1.07 | 0.963 |
